Laboratory results published in publication PMC6467533 (Chembiochem : a European journal of chemical biology, 2018).
≈ marks a conversion by molar mass, not a printed value.

Experiments:
Mtb = conditions: cited from earlier work
[1] = test system: M. smegmatis biofilm formation; conditions: cited from earlier work
Mtx TPP = Mtx TPP (Mycobacterium triplex, UniProt A0A024JUE5); test: biochemical; parameters: species or system M. triplex
Mtb TPP = Mtb TPP (Mycobacterium tuberculosis, UniProt P9WFZ5); format: biochemical
Mlt TPP = format: biochemical, M. lentiflavum
E. coli TPP = conditions: cited from earlier work
M. aurum = conditions: cited from earlier work
Ag85C = conditions: cited from earlier work

Mtx TPP, sequence (A0A024JUE5 1-354): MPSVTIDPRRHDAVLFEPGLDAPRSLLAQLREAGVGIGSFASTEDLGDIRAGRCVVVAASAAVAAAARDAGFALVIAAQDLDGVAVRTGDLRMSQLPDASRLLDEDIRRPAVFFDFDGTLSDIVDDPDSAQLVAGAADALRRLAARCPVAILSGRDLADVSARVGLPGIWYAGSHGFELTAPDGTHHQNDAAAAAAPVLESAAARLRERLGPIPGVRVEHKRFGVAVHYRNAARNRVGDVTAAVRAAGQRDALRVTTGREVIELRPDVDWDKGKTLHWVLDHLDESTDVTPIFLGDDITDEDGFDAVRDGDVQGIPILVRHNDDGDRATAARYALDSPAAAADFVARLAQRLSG
Mtb TPP, sequence (P9WFZ5 whole entry, looked up): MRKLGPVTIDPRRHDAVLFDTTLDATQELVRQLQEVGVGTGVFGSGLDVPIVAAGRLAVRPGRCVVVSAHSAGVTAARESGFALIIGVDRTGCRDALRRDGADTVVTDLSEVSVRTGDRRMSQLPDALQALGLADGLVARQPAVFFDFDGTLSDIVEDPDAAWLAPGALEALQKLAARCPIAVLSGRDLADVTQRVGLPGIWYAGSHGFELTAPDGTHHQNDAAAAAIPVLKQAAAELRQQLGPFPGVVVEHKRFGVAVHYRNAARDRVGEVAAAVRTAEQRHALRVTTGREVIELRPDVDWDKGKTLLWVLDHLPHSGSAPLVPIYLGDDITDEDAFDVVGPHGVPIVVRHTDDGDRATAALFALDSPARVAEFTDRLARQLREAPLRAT

## OCC1OC(OC2OC(CF)C(O)C(O)C2O)C(O)C(O)C1O (stereo not drawn) [6-fluoro-6-deoxy-α,α’-trehalose]
Mtb
  MIC against Mtb: 200 mg/L (≈ 581 µM)
[1]
  MIC, M. smegmatis biofilm formation: 50 to 100 µM

## O=P(O)(O)CC[C@H]1O[C@H](O[C@H]2O[C@H](CO)[C@@H](O)[C@H](O)[C@H]2O)[C@H](O)[C@@H](O)[C@@H]1O [TEP, 6-Deoxy-6-(methylenephosphonic acid)-α,α’-trehalose]
Mtx TPP
  IC50: 1960 ± 261 µM

## OCC1=C[C@@H](N[C@H]2C[C@H](CO)[C@@H](O[C@H]3O[C@@H](CO)[C@H](O)[C@@H](O)[C@@H]3O)[C@H](O)[C@H]2O)[C@H](O)[C@@H](O)[C@@H]1O [Validamycin A]
Mtb TPP
  IC50 against Mtb TPP: unexpectedly high
Mlt TPP
  IC50 against Mlt TPP: unexpectedly high
Mtx TPP
  IC50 against Mtx TPP: unexpectedly high
E. coli TPP
  inhibition of E. coli TPP: completely inhibit

## OC[C@H]1O[C@H](O[C@H]2O[C@H](CBr)[C@@H](O)[C@H](O)[C@H]2O)[C@H](O)[C@@H](O)[C@@H]1O [6-bromo-6-deoxy-α,α’-trehalose]
Mtb
  MIC against Mtb: 200 mg/L (≈ 494 µM)

## O=P(O)(O)C[C@H]1O[C@H](O[C@H]2O[C@H](CO)[C@@H](O)[C@H](O)[C@H]2O)[C@H](O)[C@@H](O)[C@@H]1O [TMP, 6-Deoxy-6-(phosphonic acid)-α,α’-trehalose]
Mtx TPP
  IC50: 288 ± 32 µM

## OC[C@H]1O[C@H](O[C@H]2O[C@H](CC3CO3)[C@@H](O)[C@H](O)[C@H]2O)[C@H](O)[C@@H](O)[C@@H]1O (stereo partly drawn) [Compound 7, 6-deoxy-6-oxiranyl-α,α’-trehalose]
Mtb TPP
  inhibition of Mtb TPP: no inhibition
Mlt TPP
  inhibition of Mlt TPP: no inhibition
Mtx TPP
  inhibition of Mtx TPP: no inhibition

## CC1OC(OC2OC(CO)C(O)C(O)C2O)C(O)C(O)C1O (stereo not drawn) [6-deoxy-α,α’-trehalose]
[1]
  MIC, M. smegmatis biofilm formation: 50 to 100 µM

## [N-]=[N+]=NC[C@H]1O[C@H](O[C@H]2O[C@H](CO)[C@@H](O)[C@H](O)[C@H]2O)[C@H](O)[C@@H](O)[C@@H]1O [6-azido-6-deoxy-α,α’-trehalose]
M. aurum
  MIC, growth of M. aurum: 200 mg/L
[1]
  MIC, M. smegmatis biofilm formation: 50 to 100 µM
Ag85C
  inhibition of Ag85C activity: inhibit Ag85C activity
